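Cells were grown in 96-well plates and exposed to each compound for 48 hours at five concentrations; endpoints were interpolated linearly between bracketing concentrations, or set to the highest concentration if not reached. GI50: concentration for 50% inhibition of growth.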 Activity calls are given as the source filed them. No stated cut-off is given here; in the data, active = GI50 up to about 1.1 µM and inactive = higher.
What was measured:
Assay in all cases: NCI anticancer screen, dose series, 48 h
Malme-3M = system: Malme-3M
NCI-H23 = system: NCI-H23
SK-OV-3 = system: SK-OV-3
CAKI-1 = system: CAKI-1
HCT-116 = system: HCT-116
CCRF-CEM = system: CCRF-CEM
A498 = system: A498
A549 = system: A549
NCI-H522 = system: NCI-H522
OVCAR-3 = system: OVCAR-3
HCC 2998 = system: HCC 2998
KM12 = system: KM12
IGROV-1 = system: IGROV-1
ACHN = system: ACHN
HL-60 = system: HL-60
M19-MEL = system: M19-MEL
NCI-H460 = system: NCI-H460
SN12C = system: SN12C
RXF 393 = system: RXF 393
KM-20L2 = system: KM-20L2
SR = system: SR
EKVX = system: EKVX
SNB-75 = system: SNB-75
TK-10 = system: TK-10
UO-31 = system: UO-31
M14 = system: M14
NCI-H226 = system: NCI-H226
XF498 = system: XF498
HOP-18 = system: HOP-18
COLO 205 = system: COLO 205
DLD-1 = system: DLD-1
HCT-15 = system: HCT-15
SF-539 = system: SF-539
UACC-62 = system: UACC-62
SK-MEL-28 = system: SK-MEL-28
RPMI-8226 = system: RPMI-8226
RXF 631 = system: RXF 631
OVCAR-5 = system: OVCAR-5
LXFL 529 = system: LXFL 529
786-0 = system: 786-0
SF-295 = system: SF-295
DMS-114 = system: DMS-114
OVCAR-8 = system: OVCAR-8
OVCAR-4 = system: OVCAR-4
K562 = system: K562
UACC-257 = system: UACC-257
U-251 = system: U-251
HT-29 = system: HT-29
SNB-19 = system: SNB-19
SK-MEL-2 = system: SK-MEL-2
LOX IMVI = system: LOX IMVI
SW-620 = system: SW-620
SNB-78 = system: SNB-78
DMS-273 = system: DMS-273
SK-MEL-5 = system: SK-MEL-5
HOP-62 = system: HOP-62
MOLT-4 = system: MOLT-4
SF-268 = system: SF-268
HOP-92 = system: HOP-92

In the case of `C[N+](C)(C)CC(=O)N/N=C(\C(=O)NC1=C(Cl)C(=O)c2ccccc2C1=O)C(C#N)c1csc(-c2ccc([N+](=O)[O-])cc2)n1` (stereo not drawn), the GI50 (Malme-3M) is reported as > 100 µM (inactive), the GI50 (NCI-H23) is reported as > 100 µM (inactive) and the GI50 (SK-OV-3) is reported as > 100 µM (inactive). For the same molecule, the GI50 (CAKI-1) was > 100 µM (inactive), the GI50 (HCT-116) was > 100 µM (inactive) and the GI50 (CCRF-CEM) was > 100 µM (inactive). The GI50 (A498) was > 100 µM (inactive), the GI50 (A549) was > 100 µM (inactive) and the GI50 (NCI-H522) was > 100 µM (inactive). The GI50 (OVCAR-3) was > 100 µM (inactive), the GI50 (HCC 2998) was > 100 µM (inactive) and the GI50 (KM12) was > 100 µM (inactive). The GI50 (IGROV-1) was > 100 µM (inactive), the GI50 (ACHN) was > 100 µM (inactive) and the GI50 (HL-60) was > 100 µM (inactive). For the same molecule, the GI50 (M19-MEL) was > 100 µM (inactive), the GI50 (NCI-H460) was > 100 µM (inactive) and the GI50 (SN12C) was > 100 µM (inactive). For the same molecule, the GI50 (RXF 393) was > 100 µM (inactive), the GI50 (KM-20L2) was > 100 µM (inactive) and the GI50 (SR) was 80.5 µM (inactive). For the same molecule, the GI50 (EKVX) was 48.2 µM (inactive), the GI50 (SNB-75) was > 100 µM (inactive) and the GI50 (TK-10) was > 100 µM (inactive). For the same molecule, the GI50 (UO-31) was > 100 µM (inactive), the GI50 (M14) was > 100 µM (inactive) and the GI50 (NCI-H226) was > 100 µM (inactive). For the same molecule, the GI50 (XF498) was > 100 µM (inactive), the GI50 (HOP-18) was > 100 µM (inactive) and the GI50 (COLO 205) was > 100 µM (inactive). The GI50 (DLD-1) was > 100 µM (inactive), the GI50 (HCT-15) was greater than 100 µM and the GI50 (SF-539) was > 100 µM (inactive). The GI50 (UACC-62) was > 100 µM (inactive), the GI50 (SK-MEL-28) was > 100 µM (inactive) and the GI50 (RPMI-8226) was > 100 µM (inactive). For the same molecule, the GI50 (RXF 631) was > 100 µM (inactive), the GI50 (OVCAR-5) was > 100 µM (inactive) and the GI50 (LXFL 529) was > 100 µM (inactive). The GI50 (786-0) was > 100 µM (inactive), the GI50 (SF-295) was > 100 µM (inactive) and the GI50 (DMS-114) was > 100 µM (inactive). The GI50 (OVCAR-8) was > 100 µM (inactive), the GI50 (OVCAR-4) was > 100 µM (inactive) and the GI50 (K562) was > 100 µM (inactive). For the same molecule, the GI50 (UACC-257) was > 100 µM (inactive), the GI50 (U-251) was > 100 µM (inactive) and the GI50 (HT-29) was > 100 µM (inactive). The GI50 (SNB-19) was > 100 µM (inactive), the GI50 (SK-MEL-2) was > 100 µM (inactive) and the GI50 (LOX IMVI) was > 100 µM (inactive). For the same molecule, the GI50 (SW-620) was > 100 µM (inactive), the GI50 (SNB-78) was > 100 µM (inactive) and the GI50 (DMS-273) was > 100 µM (inactive). For the same molecule, the GI50 (SK-MEL-5) was > 100 µM (inactive), the GI50 (HOP-62) was > 100 µM (inactive) and the GI50 (MOLT-4) was > 100 µM (inactive). For the same molecule, the GI50 (SF-268) was > 100 µM (inactive) and the GI50 (HOP-92) was > 100 µM (inactive).

For `C=C1C(=O)OC2/C=C(\C)C(O)/C=C\C(C)(O)CC(OC(=O)/C(C)=C/C)C12` (stereo not drawn), the GI50 (Malme-3M) was 21.4 µM (inactive), the GI50 (NCI-H23) was 39.8 µM (inactive) and the GI50 (SK-OV-3) was > 100 µM (inactive). The GI50 (CAKI-1) was 23.6 µM (inactive), the GI50 (HCT-116) was 16.3 µM (inactive) and the GI50 (CCRF-CEM) was > 32.5 µM (inactive). For the same molecule, the GI50 (A498) was > 100 µM (inactive), the GI50 (A549) was > 100 µM (inactive) and the GI50 (NCI-H522) was 12.8 µM (inactive). For the same molecule, the GI50 (OVCAR-3) was 9.93 µM (inactive), the GI50 (HCC 2998) was > 100 µM (inactive) and the GI50 (KM12) was 40.6 µM (inactive). The GI50 (IGROV-1) was > 100 µM (inactive), the GI50 (ACHN) was 22.4 µM (inactive) and the GI50 (HL-60) was 7.91 µM (inactive). The GI50 (M19-MEL) was 17.5 µM (inactive), the GI50 (NCI-H460) was > 61 µM (inactive) and the GI50 (SN12C) was 22 µM (inactive). The GI50 (RXF 393) was 18 µM (inactive), the GI50 (KM-20L2) was 13.2 µM (inactive) and the GI50 (SR) was 11.7 µM (inactive). For the same molecule, the GI50 (EKVX) was 30.1 µM (inactive), the GI50 (SNB-75) was > 100 µM (inactive) and the GI50 (TK-10) was > 48.4 µM (inactive). For the same molecule, the GI50 (UO-31) was > 70.1 µM (inactive), the GI50 (M14) was 17.3 µM (inactive) and the GI50 (NCI-H226) was > 100 µM (inactive). For the same molecule, the GI50 (XF498) was 29.9 µM (inactive), the GI50 (HOP-18) was > 74.8 µM (inactive) and the GI50 (COLO 205) was 15.3 µM (inactive). The GI50 (DLD-1) was 13.2 µM (inactive), the GI50 (HCT-15) was 17.2 µM and the GI50 (SF-539) was 14.1 µM (inactive). For the same molecule, the GI50 (UACC-62) was 17.1 µM (inactive), the GI50 (SK-MEL-28) was 18.3 µM (inactive) and the GI50 (RPMI-8226) was > 39.5 µM (inactive). The GI50 (RXF 631) was 38.2 µM (inactive), the GI50 (OVCAR-5) was > 100 µM (inactive) and the GI50 (LXFL 529) was 15.3 µM (inactive). The GI50 (786-0) was 20.8 µM (inactive), the GI50 (SF-295) was > 100 µM (inactive) and the GI50 (DMS-114) was > 48 µM (inactive). For the same molecule, the GI50 (OVCAR-8) was 22.1 µM (inactive), the GI50 (OVCAR-4) was 44.6 µM (inactive) and the GI50 (K562) was 9.64 µM (inactive). For the same molecule, the GI50 (UACC-257) was 27.2 µM (inactive), the GI50 (U-251) was > 67.8 µM (inactive) and the GI50 (HT-29) was 33.1 µM (inactive). For the same molecule, the GI50 (SNB-19) was > 39.6 µM (inactive), the GI50 (SK-MEL-2) was 19.7 µM (inactive) and the GI50 (LOX IMVI) was 16.2 µM (inactive). The GI50 (SW-620) was 17.3 µM (inactive), the GI50 (SNB-78) was 34.2 µM (inactive) and the GI50 (DMS-273) was 16.7 µM (inactive). The GI50 (SK-MEL-5) was 51.3 µM (inactive), the GI50 (HOP-62) was > 100 µM (inactive) and the GI50 (MOLT-4) was 4.29 µM (inactive). The GI50 (SF-268) was 76.9 µM (inactive) and the GI50 (HOP-92) was 29.2 µM (inactive).

Reference: ChEMBL document CHEMBL1201862, “PubChem BioAssay data set” (2004)
